Key:
writhing movements = experiment: analgesic activity, phenyl-p-benzoquinone writhing movements (technique derived from Siegmund); type: in vivo; settings: Mus musculus; mice, oral, 1 hour before i.p. phenyl-p-benzoquinone; counted 5th to 10th minute; read-out: ED50, the dose producing a 50% activity (% decrease in the number of writhing movements)
Protocol: The activity against pain was investigated in mice (23-25 g) according to a protocol derived from the technique described by SIEGMUND (SIEGMUND E.A., R. A. CADMUS & GOLU, J. Pharm. Exp. Ther. 119, 184, 1957). The mice, randomized in batches of 12 animals, received the treatment orally (excipient for the controls) 1 hour before the intraperitoneal injection of a 0.02% aqueous-alcoholic solution of phenyl-p-benzoquinone (Sigma). The writhing movements are counted between the 5th and 10th minute after injection.
The percentage activity obtained was evaluated for each dose (% decrease in the number of writhing movements in the treated animals relative to the controls). An ED50, the dose producing a 50% activity, was determined for each product.

edema = experiment: anti-inflammatory activity, acute inflammation induced by carrageenan in the rat hind foot (method of Winter); type: in vivo; settings: rats, 1 hour before carrageenan, edema determined 3 hours after injection, read-out: ED30, the dose producing a 30% activity (percentage decrease in the mean edema)
Protocol: The anti-inflammatory potential of the compounds was investigated on a model of acute inflammation induced by the subcutaneous injection of a solution of carrageenan into the rat hind foot, according to a technique based on the method of WINTER, C.A., E. A. RISLEY and G. N. NUSS (Proc. Soc. Exp. Med. 111, 554, 1962). The rats (100-120 g), randomized in batches of 8, were treated (including the controls, which receive excipient) 1 hour before the local injection of a 0.5% suspension of carrageenan (Sigma type IV; 0.1 ml per rat). The edema is determined 3 hours after injection, by plethysmometric measurement (UGO BASILE water plethysomometer) of the volume of each of the hind feet (edema=volume of the inflamed foot-volume of the non-inflamed foot).
The percentage activity corresponds to the percentage decrease in the mean edema of the batch compared with the mean of the corresponding control batch. An ED30, the dose producing a 30% activity, was determined.

SMILES | ED50 (writhing movements) [mg/kg] | ED30 (edema) [mg/kg]
CCCC(=O)c1ccnc2nc(-c3ccccc3F)oc12 [Example 6, 2-(2-FLUOROPHENYL)-7-BUTYRYLOXAZOLO[4,5-b]PYRIDINE] | ~8 | –
Fc1ccccc1-c1nc2ncccc2o1 [Example 6 of U.S. Pat. No. 4,038,396, 2-(2-fluorophenyl)oxazolo[4,5-b]pyridine] | ~12 | 50
CCCC(=O)c1ccnc2nc(-c3ccccc3)oc12 [Example 2, 2-PHENYL-7-BUTYRYLOXAZOLO[4,5-b]PYRIDINE] | ~5 | –

— patent publication US5061713A, “Analgesic oxazolopyridine compounds” (Science et Organization, priority 1989, dated 1991)
